Values of other authors in US20140161876A1, “LIPOSOME-CONTAINING PREPARATION UTILIZING DISSOLUTION AID, AND METHOD FOR PRODUCING SAME” (KONICA MINOLTA, INC., priority 2011, published 2014).
Values after ≈ are worked out from the molar mass of the structure shown.

Conditions: drug encapsulated, Tables 3 and 4

Row | Solubility in water [mg/mL] | SMILES
1 | 0.5 (≈ 0.85 mM) | COc1cc([C@@H]2c3cc4c(cc3[C@@H](O[C@@H]3O[C@@H]5CO[C@@H](C)O[C@H]5[C@H](O)[C@H]3O)[C@H]3COC(=O)[C@H]23)OCO4)cc(OC)c1O [etoposide]
2 | 20 (≈ 42.2 mM) | Nc1nc(=O)c2c([nH]1)NC[C@H](CNc1ccc(C(=O)N[C@@H](CCC(=O)O)C(=O)O)cc1)N2C=O [levofolinate]
